Laboratory results reported in patent US20110165092A1, “COSMETIC AND/OR DERMATOLOGICAL COMPOSITION” (Universite de la Mediterranee, Aix-Marseille II, priority 2008, published 2011).

Columns and labels:
progeria patient cells = test: Immunocytochemistry, nuclear morphology of progeria patient cells; assay type: cell-based, human; details: abnormal nuclei 48 hours after start, FIG. 10d
Text: The dermal fibroblasts of a control subject (GM00038) and of patients afflicted with progeria and carriers of the G608G mutation (AG11498 and AG01972) were obtained from the Coriell Cell Repository. The HeLa cells came from the American Type Culture Collection. The cells were cultivated in DMEM (Gibco) supplemented with 10% FBS (Gibco) and 1% antibiotic-antimycotic (Gibco). The fibroblasts came from 12-day old mice tails (Varela et al., 2005). The concentration and the length of the treatment with the statin and the aminobiphosphonate are indicated in the legend to the figures. […] The percentage of abnormal nuclei was measured 48 hours after the start of the treatment. […]
The dilution of primary antibodies was 1:100 for the polyclonal goat anti-prelamin A antibody Sc-6214, Santa Cruz Biotechnologies), 1:40 for the anti-lamin A/C antibody (4A7 supplied by G. Morris), 1:200 for the anti-calreticulin rabbit antibody (Stressgen) and 1:100 for the anti-lamin B1 antibody (Abcam). […] Digital images were recorded with a Leica DMR microscope equipped with a CoolSnap camera or with a Leica TCS SP5 confocal microscope. […] More than 100 nuclei were analysed in control fibroblasts for each of the treatments. The number of cell nuclei of patients afflicted with progeria which was analysed was 250 (passage 8), 198 (passage 13) and 150 (passage 20). […]

Zmpste24−/− cells = test: Nuclear morphology of Zmpste24−/− mice cells in culture; assay type: cell-based, mouse; details: pravastatin 1 μM and zoledronate 1 μM, alone or in combination, FIG. 12a
Text: (§1) The dermal fibroblasts of a control subject (GM00038) and of patients afflicted with progeria and carriers of the G608G mutation (AG11498 and AG01972) were obtained from the Coriell Cell Repository. The HeLa cells came from the American Type Culture Collection. The cells were cultivated in DMEM (Gibco) supplemented with 10% FBS (Gibco) and 1% antibiotic-antimycotic (Gibco). The fibroblasts came from 12-day old mice tails (Varela et al., 2005). The concentration and the length of the treatment with the statin and the aminobiphosphonate are indicated in the legend to the figures. During the combined treatment with statin+aminobiphosphonate in the presence of farnesol and/or geranylgeraniol, […] were added to the culture medium with increasing concentrations of farnesol and/or geranylgeraniol. The percentage of abnormal nuclei was measured 48 hours after the start of the treatment.
(§2) Quantification of the effect of pravastatin (1 μM) and zoledronate (1 μM) combined or uncombined on the nuclear morphology of Zmpste24^−/− mice (a) and control mice (b) cells in culture, in the presence of farnesol, geranylgeraniol or both molecules.

control fibroblasts = test: Nuclear morphology of control mice cells in culture; assay type: cell-based, mouse; details: FIG. 12b
Text: as §1, §2

healthy cells = test: Immunohistochemistry dose- and time-response on healthy control cells; assay type: cell-based, human; details: 100 μM pravastatin for 12 hours, 20 μM zoledronate for 6 hours, FIG. 3; for rate of prelamin A produced in treated healthy cells: in combination or singly
Procedure: Labtech style culture wells (Nunc, Ref. 177399) are seeded, at the rate of 5×10^4 cells per well.
The complete culture medium is supplemented with the treatment or treatments (statin, NBP, both), and the cells are cultivated for the ad hoc time.
The cells are fixed in a 4% paraformaldehyde solution (in PBS) for 10 minutes at ambient temperature.
The primary antibody is diluted to 1/100th in 50 μl of incubating solution and placed in contact with the cells for 1 hour at ambient temperature in a moisture chamber.
The primary antibodies used are of 2 types: • Anti-lamin A/C mouse (N-terminal side), clone 4A7, donation from G. Morris (Oswestry, UK) • Anti-prelamin A goat (15 aa C-terminal end), product SC6214, Santa Cruz Biotechnology, Inc. • 3 rinsings of 15 min each are carried out in 50 μl of 1× PBS.
The cells are immersed in a drop of VectaShield (Vector), covered with a cover glass and observed under a fluorescence microscope (Leica DMR, Leica Microsystems), equipped with a coolSNAP camera system (Princeton).
Dose-response and time-response curves made it possible to determine maximum effectiveness by measuring 2 parameters on healthy control cells, on the one hand, and then on HGPS patient cells.

Zmpste24−/− mice = test: Progeroid phenotype of Zmpste24−/− mice (Example 9); assay type: in vivo, mouse; details: daily treatment, FIG. 15
Procedure: Pravastatin (100 mg/kg/day) and zoledronate (100 mg/kg/day) diluted in PBS were administered to the mice every day.
The difference between the various groups of treated or untreated mice and cells was analysed using the t-test. The calculations were made with the Microsoft Excel program. The data was expressed as a mean±standard error of the mean (SEM).

Compound | influence on the effect of the pravastatin+zoledronate treatment on nuclear morphology (progeria patient cells) | influence on the effect of the pravastatin+zoledronate treatment on nuclear morphology (Zmpste24−/− cells) | effect on nuclear morphology of control fibroblasts (control fibroblasts) | rate of deformed nuclei (a sign of toxicity in healthy cells) (healthy cells) | rate of prelamin A produced in treated healthy cells (healthy cells) [%] | lifespan of the Zmpste24−/− mice, each drug separately (Zmpste24−/− mice)
CC(C)=CCCC(C)=CCCC(C)=CCO [farnesol] | abolishes the effect of the pravastatin+zoledronate treatment | abolish the effect of the pravastatin+zoledronate treatment on the nuclear morphology | Neither farnesol nor geranylgeraniol produces any effect on control fibroblasts |  |  | 
CC(C)=CCC/C(C)=C/CC/C(C)=C/CC/C(C)=C/CO [geranylgeraniol] | also blocks the effect of the treatment | abolish the effect of the pravastatin+zoledronate treatment on the nuclear morphology | Neither farnesol nor geranylgeraniol produces any effect on control fibroblasts |  |  | 
CC[C@H](C)C(=O)O[C@H]1C[C@H](O)C=C2C=C[C@H](C)[C@H](CC[C@@H](O)C[C@@H](O)CC(=O)O)[C@H]21 [pravastatin] |  |  |  | approximately 12% | 25 | 
O=P(O)(O)C(O)(Cn1ccnc1)P(=O)(O)O [zoledronate, (1-hydroxy-2-imidazol-1-yl-1-phosphono-ethyl)phosphonic acid] |  |  |  |  | 15 | does not improve the lifespan
